# Results published in patent US8093210B2, “Treatment of sepsis with 5-ethyl-1-phenyl-2(1H)-pyridone” (Solanan, Inc., priority 2008, dated 2012).
# Assays:
# [1] = test system: cecal ligation and puncture (CLP) model of sepsis; assay: Serum biomarkers and recoverable serum volume in cecal ligation and puncture (CLP) model of sepsis (Example 4); assay type: in vivo, Male Swiss-Webster mice; details: for level of blood urea nitrogen (BUN) / recoverable blood-serum volume (average volume of serum) / serum level of alanine transaminase (ALT) / serum level of creatine kinase / serum level of glucose: 200 mg/kg ip 2 h before CLP, mean ± SEM
# Method: Cecal ligation and puncture (CLP) is a more advanced model of septic shock than those involving lipopolysaccharide (LPS). In this model, as described by Wichterman K A, Baue A E, Chaudry I H (J Surg Res. 1980, 29; 189-201), mice are given intraperitoneal (IP) injections of the test compound or saline (control) prior to the beginning of the surgery. The mice are then anesthetized and a laparotomy is performed. The cecum is isolated and separated from the rest of the intestines by tying it at its base with a suturing thread. The cecum is then punctured with a needle. This facilitates influx of the colonic microflora into the abdominal cavity, which results in polymicrobial-induced peritonitis. Unlike the endotoxin model of septic shock, which is initiated by purified bacterial cell wall products, lipopolysaccharide (LPS), that simulates an acute septic shock, the CLP model more closely mimics clinically encountered signs of septic shock seen in humans as it is triggered by living bacteria.
# Male Swiss-Webster mice, seven weeks old, were injected with 5-EPP (200 mg/kg) or saline (control) by intraperitoneal route two hours prior to the beginning of the surgery. They were anesthetized by a mixture of xylazine and ketamine, and a laparotomy was performed. The cecum was separated from the rest of the intestine, ligated with suture, and then punctured with an 18 gauge needle. Blood was collected by cardiac puncture 3, 6, or 12 hours after CLP and the serum isolated by centrifugation. Analysis of serum transaminases, blood urea nitrogen, creatine kinase, and glucose was carried out by a commercial company (Idexx Laboratories, West Sacramento, Calif.).
# The results are reported as the mean±standard error of the mean with the number of animals in parentheses for each group. The statistical analysis for differences between saline control and 5-EPP pretreated mice was performed using […] (Prism™ for Windows 4.02, Graphpad Software, Inc., San Diego, Calif.). A value of P<0.05 was considered to be the minimum level of statistical significance. Reference values were determined by analyzing serum from mice injected with saline but not subjected to the CLP procedure.
# [2] = test system: TNF-α; assay: Serum TNF-α (ELISA) in LPS/D-galactosamine model of sepsis (Example 5); assay type: in vivo, mice; details: 90 minutes after the treatment
# Method: (§1) Mice were treated simultaneously with LPS (10 μg/kg) and D-galactosamine (600 mg/kg) (Galanos C, Freudenberg M A, Reutter W. […] They were anesthetized with halothane and blood was collected at different times by cardiac puncture and centrifuged to separate serum. The serum levels of alanine transaminase (ALT) and aspartate transaminase (AST) were measured by a commercial diagnostic company (Idexx Laboratories). The serum levels of tumor necrosis factor-alpha (TNF-α), interleukin-6 (IL-6) and interleukin-12 (IL-12) were determined by commercially available mouse enzyme-linked immunosorbent assay (ELISA) kits (BD BioSciences, San Jose, Calif.).
# (§2) The methodology utilized in Example 4 was used to measure and analyze the serum enzyme data for statistical significance. The serum levels of proinflammatory cytokines between the 5-EPP treated and saline control groups were analyzed for statistical significance by one-way ANOVA and a Tukey's multiple comparison test (Prism™ for Windows 4.02, Graphpad Software, Inc. San Diego, Calif.).
# [3] = test system: LPS/D-galactosamine model of sepsis; assay: Serum alanine and aspartate transaminase in LPS/D-galactosamine model of sepsis (Example 5); assay type: in vivo, mice; details: 200 mg/kg ip with LPS (10 μg/kg)/D-galactosamine (600 mg/kg)
# Method: Mice were treated simultaneously with LPS (10 μg/kg) and D-galactosamine (600 mg/kg) (Galanos C, Freudenberg M A, Reutter W. Proc Natl Acad Sci USA. 1979, 76 (11):5939-43) and 5-EPP (200 mg/kg) by intraperitoneal route in a separate set of experiments. They were anesthetized with halothane and blood was collected at different times by cardiac puncture and centrifuged to separate serum. The serum levels of alanine transaminase (ALT) and aspartate transaminase (AST) were measured by a commercial diagnostic company (Idexx Laboratories). The serum levels of tumor necrosis factor-alpha (TNF-α), interleukin-6 (IL-6) and interleukin-12 (IL-12) were determined by commercially available mouse enzyme-linked immunosorbent assay (ELISA) kits (BD BioSciences, San Jose, Calif.).
# as §2
# [4] = test system: IL-6; assay: Serum IL-6 (ELISA) in LPS/D-galactosamine model of sepsis (Example 5); assay type: in vivo, mice; details: 90 minutes after the treatment
# Method: as §1, §2
# [5] = test system: LPS/D-galactosamine-septic shock; assay: Lethal LPS/D-galactosamine septic shock in rats (Example 2); assay type: in vivo, Juvenile Sprague-Dawley rats; details: monitored for 66 hours
# Method: The methodology utilized in Example 1 was used to treat rats. Juvenile Sprague-Dawley rats were induced with LPS/D-galactosamine-septic shock. The animals were monitored for 66 hours after treatment and the resulting data analyzed by the same statistical tests and criteria as in Example 1.
# [6] = test system: LPS/D-galactosamine model of septic shock; assay: Lethal LPS/D-galactosamine-induced shock, survival of mice (Example 1); assay type: in vivo; details: for mortality: 72 hrs post-treatment
# Method: Mice were treated with 5-EPP after inducing shock with lipopolysaccharide (LPS) pursuant to established models for lethal LPS-induced shock. The method described by Galanos C, Freudenberg M A, Reutter W. Proc Natl Acad Sci USA. 1979 November; 76 (11):5939-43 was followed. The survival of the mice after treatment with various doses of the agent in LPS/D-galactosamine model of septic shock was monitored. All agents were injected simultaneously via the intraperitoneal route and the response compared to a placebo agent (saline).
# All data were analyzed by Fisher's exact test (Prism™ for Window 4.02, Graphpad Software, Inc., San Diego, Calif.). A value of P<0.05 was considered to be statistically significant.
# Table 1 clearly illustrates that 5-ethyl-1-phenyl-2(1H)-pyridone (5-EPP) protected mice from lethal LPS/D-galactosamine-induced shock at 72 hrs post-treatment.
smiles,measurement,setting,value
"CCc1ccc(=O)n(-c2ccccc2)c1 [5-EPP, 5-ethyl-1-phenyl-2-(1H)-pyridone]",level of blood urea nitrogen (BUN),[1]; 3 Hours Post-CLP,20.8 ± 0.1 (11) mg/dL
same,recoverable blood-serum volume (average volume of serum),[1]; 3 Hours Post-CLP,238.8 ± 20.11 (13) microliter
same,serum level of alanine transaminase (ALT),[1]; 3 Hours Post-CLP,159.1 ± 21.2 (11) U/L
same,serum level of creatine kinase,[1]; 3 Hours Post-CLP,2790.4 ± 370.8 (11) U/L
same,serum level of glucose,[1]; 3 Hours Post-CLP,303.9 ± 30.8 (11) mg/dL
same,level of blood urea nitrogen (BUN),[1]; 6 Hours Post-CLP,19.4 ± 1.0 (12) mg/dL
same,recoverable blood-serum volume (average volume of serum),[1]; 6 Hours Post-CLP,219.6 ± 16.70 (12) microliter
same,serum level of alanine transaminase (ALT),[1]; 6 Hours Post-CLP,128.9 ± 28.7 (12) U/L
same,serum level of creatine kinase,[1]; 6 Hours Post-CLP,1950.3 ± 244.1 (12) U/L
same,serum level of glucose,[1]; 6 Hours Post-CLP,116.7 ± 7.7 (12) mg/dL
same,level of blood urea nitrogen (BUN),[1]; 12 Hours Post-CLP,23 ± 2.3 (12) mg/dL
same,recoverable blood-serum volume (average volume of serum),[1]; 12 Hours Post-CLP,282.7 ± 27.70 (13) microliter
same,serum level of alanine transaminase (ALT),[1]; 12 Hours Post-CLP,148.2 ± 12.5 (12) U/L
same,serum level of creatine kinase,[1]; 12 Hours Post-CLP,778.5 ± 91.6 (12) U/L
same,serum level of glucose,[1]; 12 Hours Post-CLP,102.9 ± 5.9 (12) mg/dL
same,serum to blood ratio versus saline-control CLP mice,"[1]; 200 mg/kg ip, at any time, data not shown",no significant difference
same,serum level of TNF-α,[2]; 12.5 mg/kg,"5,220 ± 1280 pg/mL"
same,serum level of TNF-α,[2]; 25 mg/kg,"2,780 ± 481 pg/mL"
same,serum level of TNF-α,[2]; 50 mg/kg,576 ± 79 pg/mL
same,serum level of TNF-α,[2]; 100 mg/kg,340 ± 34 pg/mL
same,serum level of alanine transaminase,[3]; After 3 Hours,109.4 ± 6.1 U/L
same,serum level of aspartate transaminase,[3]; After 3 Hours,131.3 ± 11.9 U/L
same,serum level of alanine transaminase,[3]; After 6 Hours,130.0 ± 8.9 U/L
same,serum level of aspartate transaminase,[3]; After 6 Hours,152.38 ± 14.4 U/L
same,serum level of alanine transaminase,[3]; After 12 Hours,109.5 ± 8.3 U/L
same,serum level of aspartate transaminase,[3]; After 12 Hours,173.38 ± 13.0 U/L
same,serum level of IL-6,[4]; 50 mg/kg,"9,980 ± 564 pg/mL"
same,serum level of IL-6,[4]; 100 mg/kg,"5,111 ± 343 pg/mL"
same,serum level of IL-6,[4]; 200 mg/kg,"3,578 ± 421 pg/mL"
same,mortality,[5]; 75 mg/kg,14.3% mortality
same,mortality,[5]; 200 mg/kg,12.5% mortality
same,mortality,[6]; 25 mg/kg i.p. simultaneously with LPS/D-galactosamine,30% mortality
same,mortality,[6]; 50 mg/kg i.p. simultaneously with LPS/D-galactosamine,5% mortality
same,mortality,[6]; 100 mg/kg i.p. simultaneously with LPS/D-galactosamine,0% mortality
same,onset of lethal shock,[6]; lowest dose (25 mg/kg),delay of the onset of lethal shock
